Laboratory results published in ChEMBL document CHEMBL3045089, “Synthesis, spectral studies, antimicrobial and insect antifeedant activities of some substituted styryl 4-fluorophenyl ketones” (2011).
Calls of active or inactive are those of the source. The rule behind the calls is not given here.

These molecules were tested on Achaea janata (assay: Antifeedant activity against fourth instar larvae of Achaea janata L. on Riclmus cammunls leaves assessed as number of leaf discs consumed in 24 hrs at 150 ppm at 26 +/- 1 degC).
Format: functional

Row | SMILES | Activity
1 | O=C(/C=C/c1ccc(Cl)cc1)c1ccc(F)cc1 | 0

These molecules were tested on Achaea janata (assay: Antifeedant activity against fourth instar larvae of Achaea janata L. on Riclmus cammunls leaves assessed as number of leaf discs consumed in 24 hrs at 100 ppm at 26 +/- 1 degC).
Format: functional

Row | SMILES | Activity
2 | O=C(/C=C/c1ccc(Cl)cc1)c1ccc(F)cc1 | 0.05

What follows are molecules tested on Achaea janata (assay: Antifeedant activity against fourth instar larvae of Achaea janata L. on Riclmus cammunls leaves assessed as number of leaf discs consumed in 24 hrs at 50 ppm at 26 +/- 1 degC).
Format: functional

Row | SMILES | Activity
3 | O=C(/C=C/c1ccc(Cl)cc1)c1ccc(F)cc1 | 0.1

These molecules were tested on Achaea janata (assay: Antifeedant activity against fourth instar larvae of Achaea janata L. on Riclmus cammunls leaves assessed as number of leaf discs consumed in 24 hrs at 200 ppm at 26 +/- 1 degC).
Format: functional

Row | SMILES | Activity
4 | O=C(/C=C/c1ccc(Cl)cc1)c1ccc(F)cc1 | 0.1
5 | CN(C)c1ccc(/C=C/C(=O)c2ccc(F)cc2)cc1 | 9
6 | O=C(/C=C/c1ccc(Br)cc1)c1ccc(F)cc1 | 0.5
7 | O=C(/C=C/c1cccc([N+](=O)[O-])c1)c1ccc(F)cc1 | 10
8 | O=C(/C=C/c1ccccc1)c1ccc(F)cc1 | 8
9 | Cc1ccc(/C=C/C(=O)c2ccc(F)cc2)cc1 | 9
10 | COc1ccc(/C=C/C(=O)c2ccc(F)cc2)cc1 | 9
11 | O=C(/C=C/c1ccccc1[N+](=O)[O-])c1ccc(F)cc1 | 12
12 | O=C(/C=C/c1cccc(Cl)c1)c1ccc(F)cc1 | 0.4

These molecules were tested on Aspergillus niger (assay: Antifungal activity against Aspergillus niger assessed as inhibition zone at 50 ug/ml measured after 72 hrs by drug dilution method).
Format: functional, organism-based

Row | SMILES | Activity | inhibition
13 | O=C(/C=C/c1ccc(Cl)cc1)c1ccc(F)cc1 | inactive | 
14 | CN(C)c1ccc(/C=C/C(=O)c2ccc(F)cc2)cc1 |  | Active
15 | O=C(/C=C/c1ccc(Br)cc1)c1ccc(F)cc1 |  | Active
16 | O=C(/C=C/c1cccc([N+](=O)[O-])c1)c1ccc(F)cc1 | inactive | 
17 | O=C(/C=C/c1ccccc1)c1ccc(F)cc1 | inactive | 
18 | Cc1ccc(/C=C/C(=O)c2ccc(F)cc2)cc1 | inactive | 
19 | O=C(/C=C/c1ccccc1[N+](=O)[O-])c1ccc(F)cc1 | inactive | 

Each molecule was assayed on Penicillium (assay: Antifungal activity against Penicillium assessed as inhibition zone at 50 ug/ml measured after 72 hrs by drug dilution method).
Format: functional, organism-based

Row | SMILES | Activity | inhibition
20 | O=C(/C=C/c1ccc(Cl)cc1)c1ccc(F)cc1 | inactive | 
21 | CN(C)c1ccc(/C=C/C(=O)c2ccc(F)cc2)cc1 |  | Active
22 | O=C(/C=C/c1ccc(Br)cc1)c1ccc(F)cc1 |  | Active
23 | O=C(/C=C/c1cccc([N+](=O)[O-])c1)c1ccc(F)cc1 | inactive | 
24 | O=C(/C=C/c1ccccc1)c1ccc(F)cc1 | inactive | 
25 | COc1ccc(/C=C/C(=O)c2ccc(F)cc2)cc1 |  | Active
26 | O=C(/C=C/c1ccccc1[N+](=O)[O-])c1ccc(F)cc1 | inactive | 

The molecules below were run on Candida albicans (assay: Antifungal activity against Candida albicans assessed as inhibition zone at 250 ug/ml measured after 72 hrs by disk diffusion method).
Format: functional, organism-based

Row | SMILES | inhibition | Activity
27 | O=C(/C=C/c1ccc(Br)cc1)c1ccc(F)cc1 | Active | 
28 | O=C(/C=C/c1cccc([N+](=O)[O-])c1)c1ccc(F)cc1 |  | inactive
29 | O=C(/C=C/c1ccccc1)c1ccc(F)cc1 |  | inactive
30 | COc1ccc(/C=C/C(=O)c2ccc(F)cc2)cc1 | Active | 
31 | O=C(/C=C/c1ccccc1[N+](=O)[O-])c1ccc(F)cc1 |  | inactive
32 | O=C(/C=C/c1cccc(Cl)c1)c1ccc(F)cc1 |  | inactive

The molecules below were run on Enterococcus faecalis (assay: Antibacterial activity against Enterococcus faecalis assessed as inhibition zone at 250 ug/ml measured after 24 to 45 hrs by disk diffusion method).
Format: functional

Row | SMILES | Activity
33 | O=C(/C=C/c1ccc(Cl)cc1)c1ccc(F)cc1 | inactive
34 | CN(C)c1ccc(/C=C/C(=O)c2ccc(F)cc2)cc1 | inactive
35 | O=C(/C=C/c1ccc(Br)cc1)c1ccc(F)cc1 | 20 mm
36 | O=C(/C=C/c1cccc([N+](=O)[O-])c1)c1ccc(F)cc1 | inactive
37 | O=C(/C=C/c1ccccc1)c1ccc(F)cc1 | inactive
38 | Cc1ccc(/C=C/C(=O)c2ccc(F)cc2)cc1 | inactive
39 | COc1ccc(/C=C/C(=O)c2ccc(F)cc2)cc1 | 20 mm
40 | O=C(/C=C/c1ccccc1[N+](=O)[O-])c1ccc(F)cc1 | inactive
41 | O=C(/C=C/c1cccc(Cl)c1)c1ccc(F)cc1 | inactive

Each molecule was assayed on Proteus vulgaris (assay: Antibacterial activity against Proteus vulgaris assessed as inhibition zone at 250 ug/ml measured after 24 to 45 hrs by disk diffusion method).
Format: functional

Row | SMILES | Activity
42 | O=C(/C=C/c1ccc(Cl)cc1)c1ccc(F)cc1 | 13 mm
43 | CN(C)c1ccc(/C=C/C(=O)c2ccc(F)cc2)cc1 | 13 mm
44 | O=C(/C=C/c1ccc(Br)cc1)c1ccc(F)cc1 | 13 mm
45 | O=C(/C=C/c1cccc([N+](=O)[O-])c1)c1ccc(F)cc1 | 13 mm
46 | O=C(/C=C/c1ccccc1)c1ccc(F)cc1 | 8 mm
47 | Cc1ccc(/C=C/C(=O)c2ccc(F)cc2)cc1 | 8 mm
48 | COc1ccc(/C=C/C(=O)c2ccc(F)cc2)cc1 | 13 mm
49 | O=C(/C=C/c1ccccc1[N+](=O)[O-])c1ccc(F)cc1 | 13 mm
50 | O=C(/C=C/c1cccc(Cl)c1)c1ccc(F)cc1 | 13 mm

Each molecule was assayed on Klebsiella (assay: Antibacterial activity against Klebsiella species assessed as inhibition zone at 250 ug/ml measured after 24 to 45 hrs by disk diffusion method).
Format: functional

Row | SMILES | Activity
51 | O=C(/C=C/c1ccc(Cl)cc1)c1ccc(F)cc1 | 13 mm
52 | CN(C)c1ccc(/C=C/C(=O)c2ccc(F)cc2)cc1 | 13 mm
53 | O=C(/C=C/c1ccc(Br)cc1)c1ccc(F)cc1 | 20 mm
54 | O=C(/C=C/c1cccc([N+](=O)[O-])c1)c1ccc(F)cc1 | 13 mm
55 | O=C(/C=C/c1ccccc1)c1ccc(F)cc1 | 8 mm
56 | Cc1ccc(/C=C/C(=O)c2ccc(F)cc2)cc1 | 8 mm
57 | COc1ccc(/C=C/C(=O)c2ccc(F)cc2)cc1 | 13 mm
58 | O=C(/C=C/c1ccccc1[N+](=O)[O-])c1ccc(F)cc1 | 13 mm
59 | O=C(/C=C/c1cccc(Cl)c1)c1ccc(F)cc1 | 13 mm

The molecules below were run on Pseudomonas (assay: Antibacterial activity against Pseudomonas assessed as inhibition zone at 250 ug/ml measured after 24 to 45 hrs by disk diffusion method).
Format: functional

Row | SMILES | Activity
60 | O=C(/C=C/c1ccc(Cl)cc1)c1ccc(F)cc1 | 13 mm
61 | CN(C)c1ccc(/C=C/C(=O)c2ccc(F)cc2)cc1 | 20 mm
62 | O=C(/C=C/c1ccc(Br)cc1)c1ccc(F)cc1 | 13 mm
63 | O=C(/C=C/c1cccc([N+](=O)[O-])c1)c1ccc(F)cc1 | 13 mm
64 | O=C(/C=C/c1ccccc1)c1ccc(F)cc1 | 8 mm
65 | Cc1ccc(/C=C/C(=O)c2ccc(F)cc2)cc1 | 8 mm
66 | COc1ccc(/C=C/C(=O)c2ccc(F)cc2)cc1 | 13 mm
67 | O=C(/C=C/c1ccccc1[N+](=O)[O-])c1ccc(F)cc1 | 13 mm
68 | O=C(/C=C/c1cccc(Cl)c1)c1ccc(F)cc1 | 13 mm

Each molecule was assayed on Staphylococcus aureus (assay: Antibacterial activity against Staphylococcus aureus assessed as inhibition zone at 250 ug/ml measured after 24 to 45 hrs by disk diffusion method).
Format: functional

Row | SMILES | Activity
69 | O=C(/C=C/c1ccc(Cl)cc1)c1ccc(F)cc1 | 13 mm
70 | CN(C)c1ccc(/C=C/C(=O)c2ccc(F)cc2)cc1 | 20 mm
71 | O=C(/C=C/c1ccc(Br)cc1)c1ccc(F)cc1 | 20 mm
72 | O=C(/C=C/c1cccc([N+](=O)[O-])c1)c1ccc(F)cc1 | 13 mm
73 | O=C(/C=C/c1ccccc1)c1ccc(F)cc1 | 13 mm
74 | Cc1ccc(/C=C/C(=O)c2ccc(F)cc2)cc1 | 13 mm
75 | COc1ccc(/C=C/C(=O)c2ccc(F)cc2)cc1 | 13 mm
76 | O=C(/C=C/c1ccccc1[N+](=O)[O-])c1ccc(F)cc1 | 13 mm
77 | O=C(/C=C/c1cccc(Cl)c1)c1ccc(F)cc1 | 13 mm

These molecules were tested on Escherichia coli (assay: Antibacterial activity against Escherichia coli assessed as inhibition zone at 250 ug/ml measured after 24 to 45 hrs by disk diffusion method).
Format: functional

Row | SMILES | Activity
78 | O=C(/C=C/c1ccc(Cl)cc1)c1ccc(F)cc1 | 13 mm
79 | CN(C)c1ccc(/C=C/C(=O)c2ccc(F)cc2)cc1 | 20 mm
80 | O=C(/C=C/c1ccc(Br)cc1)c1ccc(F)cc1 | 20 mm
81 | O=C(/C=C/c1cccc([N+](=O)[O-])c1)c1ccc(F)cc1 | 13 mm
82 | O=C(/C=C/c1ccccc1)c1ccc(F)cc1 | 8 mm
83 | Cc1ccc(/C=C/C(=O)c2ccc(F)cc2)cc1 | 8 mm
84 | COc1ccc(/C=C/C(=O)c2ccc(F)cc2)cc1 | 13 mm
85 | O=C(/C=C/c1ccccc1[N+](=O)[O-])c1ccc(F)cc1 | 13 mm
86 | O=C(/C=C/c1cccc(Cl)c1)c1ccc(F)cc1 | 13 mm
